Data from patent US9751885B2, “Cyclopropanamine compound and use thereof” (Takeda Pharmaceutical Company Limited, priority 2012, dated 2017).
Structures can show the parent of a compound that is named as a salt. Where two headings read alike, the source gives them in different places.

Tests used:
[1] = system: white blood cell number, red blood cell number, platelet number; assay: Evaluation of blood cell number in mouse; type: in vivo; conditions: oral, Day 2 after administration
Protocol: Evaluation of Blood Cell Number in Mouse
(§1) Male ICR mice (hereinafter mice) were acclimated for at least one week in a rearing facility. The mice were raised in a rearing room with controlled temperature and humidity under a 12:12 hour light-dark cycle, and allowed free ingestion of feed and water.
The compounds were suspended in 0.5% methylcellulose/0.02% citric acid/distilled water and orally administered. All compounds were administered to the mice at a dose of 1 mg/kg, 10 mg/kg, 50 mg/kg or 100 mg/kg (body weight). On Day 2 after the administration of the compound, the whole blood was collected.
Using Sysmex XT-1800i (Sysmex Corporation), the white blood cell number, red blood cell number, and platelet number in the collected whole blood per unit volume were measured. The influence of each compound on each blood cell number was determined by comparing the number with the mean of each blood cell number of the mouse without administration of the compound (control group), and the numerical value of each blood cell number of a mouse with the administration of the compound is shown in percentage. percentage (%) of blood cell number of compound administration group as compared to control group=(mean blood cell number of compound administration group mean blood cell number of compound non-administration group)×100

[2] = Evaluation of hippocampal distribution in mouse; type: in vivo; conditions: male ICR mice, 10 mg/kg oral; for concentration at 0.5 h / Kp at 0.5 h: 0.5 hr after administration; for concentration at 1 h / Kp at 1 h: 1 hr after administration
Protocol: Evaluation of Hippocampal Distribution in Mouse
as §1
The compounds were suspended in 0.5% methylcellulose/0.02% citric acid/distilled water and orally administered. All compounds were administered to the mice at a dose of 10 mg/kg (body weight).
Blood samples were collected at 0.5 hr, or 1 hr, or 1.5 hr from compound administration, and the hippocampus was isolated simultaneously. The plasma concentration and hippocampus concentration of each test compound were measured by the LC/MS/MS method, the ratio (hippocampus/plasma concentration ratio) was calculated, and distribution into hippocampus was evaluated.

[3] = hippocampus, read-out: hippocampus concentration (mean)
[4] = hippocampus/plasma, read-out: hippocampus/plasma concentration ratio (mean)
[5] = plasma, read-out: plasma concentration (mean)

| platelet number, percentage of compound administration group compared to control group, mean ([1]; 10 mg/kg) | red blood cell number, percentage of compound administration group compared to control group, mean ([1]; 10 mg/kg) | white blood cell number, percentage of compound administration group compared to control group, mean ([1]; 10 mg/kg) | platelet number, percentage of compound administration group compared to control group, mean ([1]; 100 mg/kg) | red blood cell number, percentage of compound administration group compared to control group, mean ([1]; 100 mg/kg) | white blood cell number, percentage of compound administration group compared to control group, mean ([1]; 100 mg/kg) | concentration at 1.5 h ([2]; hippocampus, 1.5 hr after administration, read-out: hippocampus concentration (mean)) | Kp at 1.5 h ([2]; hippocampus/plasma, 1.5 hr after administration, read-out: hippocampus/plasma concentration ratio (mean)) | concentration at 1.5 h ([2]; plasma, 1.5 hr after administration, read-out: plasma concentration (mean)) | concentration at 0.5 h [2, 3] | Kp at 0.5 h [2, 4] | concentration at 0.5 h [2, 5] | concentration at 1 h [2, 3] | Kp at 1 h [2, 4] | concentration at 1 h [2, 5] | SMILES |
| --- | --- | --- | --- | --- | --- | --- | --- | --- | --- | --- | --- | --- | --- | --- | --- |
| 114.7% | 97.8% | 81.6% | 110.8% | 104.0% | 80.9% |  |  |  |  |  |  | 437 ng/g | 0.47 | 920 ng/mL | Cn1cc(NC(=O)c2cccc([C@@H]3C[C@H]3NC3CCC(F)(F)CC3)c2)cn1 (relative stereo) [Example 205, 3-(trans-2-((4,4-difluorocyclohexyl)amino)cyclopropyl)-N-(1-methyl-1H-pyrazol-4-yl)benzamide dihydrochloride] |
| 100.7% | 98.4% | 113.3% | 91.2% | 99.8% | 124.7% |  |  |  | 481 ng/g | 0.31 | 1570 ng/mL |  |  |  | Cc1cc(NC(=O)c2cccc([C@@H]3C[C@H]3NC3CCC(F)(F)CC3)c2)n(C)n1 (relative stereo) [Example 215, 3-(trans-2-((4,4-difluorocyclohexyl)amino)cyclopropyl)-N-(1,3-dimethyl-1H-pyrazol-5-yl)benzamide dihydrochloride] |
| 102.4% | 100.4% | 97.3% | 93.5% | 99.3% | 92.4% |  |  |  |  |  |  | 572 ng/g | 3.66 | 154 ng/mL | Cc1cc(NC(=O)c2cccc([C@@H]3C[C@H]3NC3CCC3)c2)no1 (relative stereo) [Example 232, 3-(trans-2-(cyclobutylamino)cyclopropyl)-N-(5-methyl-1,2-oxazol-3-yl)benzamide hydrochloride] |
| 99.1% | 101.1% | 75.7% | 96.6% | 97.8% | 93.0% |  |  |  | 216 ng/g | 1.04 | 204 ng/mL |  |  |  | Cc1cc(NC(=O)c2cccc([C@@H]3C[C@H]3NC3CCOCC3)c2)on1 (relative stereo) [Example 235, N-(3-methyl-1,2-oxazol-5-yl)-3-(trans-2-(tetrahydro-2H-pyran-4-ylamino)cyclopropyl)benzamide hydrochloride] |

Second part, the molecule before the results:

| SMILES | platelet number, percentage of compound administration group compared to control group, mean ([1]; 10 mg/kg) | red blood cell number, percentage of compound administration group compared to control group, mean ([1]; 10 mg/kg) | white blood cell number, percentage of compound administration group compared to control group, mean ([1]; 10 mg/kg) | platelet number, percentage of compound administration group compared to control group, mean ([1]; 100 mg/kg) | red blood cell number, percentage of compound administration group compared to control group, mean ([1]; 100 mg/kg) | white blood cell number, percentage of compound administration group compared to control group, mean ([1]; 100 mg/kg) | concentration at 1.5 h ([2]; hippocampus, 1.5 hr after administration, read-out: hippocampus concentration (mean)) | Kp at 1.5 h ([2]; hippocampus/plasma, 1.5 hr after administration, read-out: hippocampus/plasma concentration ratio (mean)) | concentration at 1.5 h ([2]; plasma, 1.5 hr after administration, read-out: plasma concentration (mean)) | concentration at 0.5 h [2, 3] | Kp at 0.5 h [2, 4] | concentration at 0.5 h [2, 5] | concentration at 1 h [2, 3] | Kp at 1 h [2, 4] | concentration at 1 h [2, 5] |
| --- | --- | --- | --- | --- | --- | --- | --- | --- | --- | --- | --- | --- | --- | --- | --- |
| Cc1nnc(NC(=O)c2cc([C@@H]3C[C@H]3NC3CCC3)ccc2F)s1 (relative stereo) [Example 183, 5-(trans-2-(cyclobutylamino)cyclopropyl)-2-fluoro-N-(5-methyl-1,3,4-thiadiazol-2-yl)benzamide dihydrochloride] | 96.4% | 98.5% | 88.1% | 86.6% | 97.5% | 114.9% | 884 ng/g | 1.35 | 651 ng/mL |  |  |  |  |  |  |
| Cc1nnc(NC(=O)c2ccc(C)c([C@@H]3C[C@H]3NC3CCOCC3)c2)s1 (relative stereo) [Example 185, 4-methyl-N-(5-methyl-1,3,4-thiadiazol-2-yl)-3-(trans-2-(tetrahydro-2H-pyran-4-ylamino)cyclopropyl)benzamide hydrochloride] | 90.4% | 102.0% | 88.0% | 84.7% | 100.7% | 129.9% |  |  |  | 581 ng/g | 0.58 | 1020 ng/mL |  |  |  |
| Cc1nnc(NC(=O)c2cc([C@@H]3C[C@H]3NC3CCC(F)(F)CC3)ccc2F)s1 (relative stereo) [Example 223, 5-(trans-2-((4,4-difluorocyclohexyl)amino)cyclopropyl)-2-fluoro-N-(5-methyl-1,3,4-thiadiazol-2-yl)benzamide dihydrochloride] | 94.8% | 101.2% | 114.5% | 98.9% | 100.4% | 121.7% |  |  |  | 2390 ng/g | 1.69 | 1400 ng/mL |  |  |  |
| O=C(NC1CC(F)(F)C1)c1cccc([C@@H]2C[C@H]2NC2CCC(F)(F)CC2)c1 (relative stereo) [Example 234, N-(3,3-difluorocyclobutyl)-3-(trans-2-((4,4-difluorocyclohexyl)amino)cyclopropyl)benzamide hydrochloride] | 98.8% | 97.7% | 76.7% | 88.9% | 101.2% | 94.8% |  |  |  |  |  |  | 276 ng/g | 1.58 | 175 ng/mL |
| O=C(NC1CC(F)(F)C1)c1cc([C@@H]2C[C@H]2NCC2CC2)ccc1F (relative stereo) [Example 241, 5-(trans-2-((cyclopropylmethyl)amino)cyclopropyl)-N-(3,3-difluorocyclobutyl)-2-fluorobenzamide hydrochloride] | 102.6% | 96.9% | 94.6% | 89.2% | 99.0% | 101.9% |  |  |  | 878 ng/g | 5.31 | 167 ng/mL |  |  |  |
